From patent US7429579B2, “Tetrahydrobenzazepine derivatives useful as modulators of dopamine D3 receptors (antipsychotic agents)” (SmithKline Beecham, PLC, priority 2000, dated 2008)
Structures can show the parent of a compound that is named as a salt.

Biological target: T1, dopamine D3 receptor (Homo sapiens, UniProt P35462)
T1 construct: expressed in transfected cells; host or cells: CHO cells (crude cell membranes)
Experiment: Binding experiments on cloned dopamine receptors: displacement of [125I]-Iodosulpride
Conditions: cloned human D3 receptor expressed in CHO cells, [125I]-Iodosulpride displacement; pKi accurate to about ±0.2-0.3
Experimental: Binding Experiments on Cloned Dopamine (e.g. D2, D3 and D4) Receptors
Cultures were grown as monolayers or in suspension in standard cell culture media. Cells were recovered by scraping (from monolayers) or by centrifugation (from suspension cultures), and were washed two or three times by suspension in phosphate buffered saline followed by collection by centrifugation. Cell pellets were stored frozen at −80° C. Crude cell membranes were prepared by homogenisation followed by high-speed centrifugation, and characterisation of cloned receptors achieved by radioligand binding.
Preparation of Cho Cell Membranes: Cell Pellets were Gently Thawed at Room temperature, and resuspended in about 20 volumes of ice-cold Extraction buffer; 5 mM EDTA, 50 mM Trizma pre-set crystals (pH7.4@37° C.), 1 mM MgCl2, 5 mM KCl and 120 mM NaCl. The suspension was homogenised using an Ultra-Turrax at full speed for 15 seconds. The homogenate was centrifuged at 18,000 r.p.m for 15 min at 4° C. in a Sorvall RC5C centrifuge. Supernatant was discarded, and homogenate re-suspended in extraction buffer then centrifugation was repeated. The final pellet was resuspended in 50 mM Trizma pre-set crystals (pH 7.4 @ 37° C.) and stored in 1 ml aliquot tubes at −80° C. (D2=3.0E+08 cells, D3=7.0E+07 cells and D4=1.0E+08 cells).
The total volume is 0.2 ml and incubated in a water bath at 37° C. for 40 minutes. Following incubation, samples were filtered onto GF/B Unifilters using a Can berra Packard Filtermate, and washed four times with ice-cold 50 mM Trizma pre-set crystals (pH 7.4 @ 37° C.). The radioactivity on the filters was measured using a Canberra Packard Topcount Scintillation counter. […] For competition curves, 10 serial log concentrations of competing cold drug were used (Dilution range: 10 μM-10 pM). Competition curves were analysed using Inflexion, an iterative curve fitting programme in Excel. Results were expressed as pKi values where pKi=−log 10 [Ki].

T1 sequence (P35462 whole entry): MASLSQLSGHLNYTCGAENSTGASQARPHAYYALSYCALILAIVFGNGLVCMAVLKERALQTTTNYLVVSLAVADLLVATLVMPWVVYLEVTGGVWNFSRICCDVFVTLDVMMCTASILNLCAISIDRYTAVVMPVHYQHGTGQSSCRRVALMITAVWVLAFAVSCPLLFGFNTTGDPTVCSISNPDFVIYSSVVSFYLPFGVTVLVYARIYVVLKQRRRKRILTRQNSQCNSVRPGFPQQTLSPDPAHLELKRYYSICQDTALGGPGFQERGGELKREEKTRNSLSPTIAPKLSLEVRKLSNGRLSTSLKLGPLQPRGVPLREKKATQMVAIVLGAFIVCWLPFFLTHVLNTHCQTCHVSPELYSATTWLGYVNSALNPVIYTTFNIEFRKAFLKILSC

| Structure (SMILES) | Ki |
| --- | --- |
| Cn1c(SCCCN2CCc3ccc(S(C)(=O)=O)cc3CC2)nnc1-c1ccc2c(ccn2C)c1 [Example 74, 3-(3-{[4-methyl-5-(1-methyl-1H-indol-5-yl)-4H-1,2,4-triazol-3-yl]thio}propyl)-7-(methylsulfonyl)-2,3,4,5-tetrahydro-1H-3-benzazepine] | 0.316 to 10 nM |
| CCS(=O)(=O)c1ccc2c(c1)CCN(CCCSc1nnc(-c3cc4ccccc4s3)n1C)CC2 [Example 91, 3-(3-{[5-(1-benzothien-2-yl)-4-methyl-4H-1,2,4-triazol-3-yl]thio}propyl)-7-(ethylsulfonyl)-2,3,4,5-tetrahydro-1H-3-benzazepine] | 0.316 to 10 nM |
| CCS(=O)(=O)c1ccc2c(c1)CCN(CCCSc1nnc(-c3cc4ccccc4[nH]3)n1C)CC2 [Example 93, 7-(ethylsulfonyl)-3-(3-{[5-(1H-indol-2-yl)-4-methyl-4H-1,2,4-triazol-3-yl]thio}propyl)-2,3,4,5-tetrahydro-1H-3-benzazepine] | 0.316 to 10 nM |
| CCS(=O)(=O)c1ccc2c(c1)CCN(CCCSc1nnc(-c3cc4ccccc4o3)n1C)CC2 [Example 95, 3-(3-{[5-(1-benzofuran-2-yl)-4-methyl-4H-1,2,4-triazol-3-yl]thio}propyl)-7-(ethylsulfonyl)-2,3,4,5-tetrahydro-1H-3-benzazepine] | 0.316 to 10 nM |
| CCS(=O)(=O)c1ccc2c(c1)CCN(CCCSc1nnc(-c3cccc4occc34)n1C)CC2 [Example 96, 3-(3-{[5-(1-benzofuran-4-yl)-4-methyl-4H-1,2,4-triazol-3-yl]thio}propyl)-7-(ethylsulfonyl)-2,3,4,5-tetrahydro-1H-3-benzazepine] | 0.316 to 10 nM |
| CCS(=O)(=O)c1ccc2c(c1)CCN(CCCSc1nnc(-c3cc4ccccc4n3C)n1C)CC2 [Example 99, 7-(ethylsulfonyl)-3-(3-{[4-methyl-5-(1-methyl-1H-indol-2-yl)-4H-1,2,4-triazol-3-yl]thio}propyl)-2,3,4,5-tetrahydro-1H-3-benzazepine] | 0.316 to 10 nM |
| CCS(=O)(=O)c1ccc2c(c1)CCN(CCCSc1nnc(-c3cccc4ccoc34)n1C)CC2 [Example 100, 3-(3-{[5-(1-benzofuran-7-yl)-4-methyl-4H-1,2,4-triazol-3-yl]thio}propyl)-7-(ethylsulfonyl)-2,3,4,5-tetrahydro-1H-3-benzazepine] | 0.316 to 10 nM |
| Cc1cc(-c2ccc3c(c2)CCN(CCCSc2nnc(-c4ccc5ncccc5c4)n2C)CC3)on1 [Example 126, 7-(3-methyl-5-isoxazolyl)-3-(3-{[4-methyl-5-(6-quinolinyl)-4H-1,2,4-triazol-3-yl]thio}propyl)-2,3,4,5-tetrahydro-1H-3-benzazepine] | 0.316 to 10 nM |
| Cc1cc(-c2ccc3c(c2)CCN(CCCSc2nnc(-c4ccc(F)cc4F)n2C)CC3)no1 [Example 131, 3-(3-{[5-(2,4-difluorophenyl)-4-methyl-4H-1,2,4-triazol-3-yl]thio}propyl)-7-(5-methyl-3-isoxazolyl)-2,3,4,5-tetrahydro-1H-3-benzazepine] | 0.316 to 10 nM |
| Cc1cc(-c2ccc3c(c2)CCN(CCCSc2nnc(-c4ccc(F)c5ncccc45)n2C)CC3)no1 [Example 135, 3-(3-{[5-(8-fluoro-5-quinolinyl)-4-methyl-4H-1,2,4-triazol-3-yl]thio}propyl)-7-(5-methyl-3-isoxazolyl)-2,3,4,5-tetrahydro-1H-3-benzazepine] | 0.316 to 10 nM |
| Cc1ccc2c(-c3nnc(SCCCN4CCc5ccc(-c6cc(C)on6)cc5CC4)n3C)ccc(F)c2n1 [Example 137, 3-(3-{[5-(8-fluoro-2-methyl-5-quinolinyl)-4-methyl-4H-1,2,4-triazol-3-yl]thio}propyl)-7-(5-methyl-3-isoxazolyl)-2,3,4,5-tetrahydro-1H-3-benzazepine] | 0.316 to 10 nM |
| Cc1cc(-c2ccc3c(c2)CCN(CCCSc2nnc(-c4ccc5cnccc5n4)n2C)CC3)no1 [Example 146, 7-(5-methyl-3-isoxazolyl)-3-(3-{[4-methyl-5-(1,6-naphthyridin-2-yl)-4H-1,2,4-triazol-3-yl]thio}propyl)-2,3,4,5-tetrahydro-1H-3-benzazepine] | 0.316 to 10 nM |
| Cc1ccc2cc(-c3nnc(SCCCN4CCc5ccc(-c6ncc(C)o6)cc5CC4)n3C)ccc2n1 [Example 168, 3-(3-{[4-methyl-5-(2-methyl-6-quinolinyl)-4H-1,2,4-triazol-3-yl]thio}propyl)-7-(5-methyl-1,3-oxazol-2-yl)-2,3,4,5-tetrahydro-1H-3-benzazepine] | 0.316 to 10 nM |
| CCn1c(SCCCN2CCc3ccc(-c4ncc(C)o4)cc3CC2)nnc1-c1ccc2ncccc2c1 [Example 169, 3-(3-{[4-ethyl-5-(6-quinolinyl)-4H-1,2,4-triazol-3-yl]thio}propyl)-7-(5-methyl-1,3-oxazol-2-yl)-2,3,4,5-tetrahydro-1H-3-benzazepine] | 0.316 to 10 nM |
| Cc1ccc2cc(-c3nnc(CCCCN4CCc5ccc(-c6cc(C)on6)cc5CC4)n3C)ccc2n1 [Example 173, 7-(5-Methyl-3-isoxazolyl)-3-{4-[4-methyl-5-(2-methyl-6-quinolinyl)-4H-1,2,4-triazol-3-yl]butyl}-2,3,4,5-tetrahydro-1H-3-benzazepine hydrochloride] | 0.316 to 10 nM |
| Cc1cc(-c2ccc3c(c2)CCN(CCCCSc2nnc(-c4ccc5ncccc5c4)n2C)CC3)no1 [Example 176, 7-(5-Methyl-3-isoxazolyl)-3-(4-{[4-methyl-5-(6-quinolinyl)-4H-1,2,4-triazol-3-yl]thio}butyl)-2,3,4,5-tetrahydro-1H-3-benzazepine] | 0.316 to 10 nM |
